Results reported in patent publication US8715747B2, “Biocomposition stimulant of the immune system, anti-tumor and anti-HIV” (Pharmabrand S.A., priority 2007, dated 2014).

How the values were obtained:
[1] = system: prostate cancer with node metastases and invasion of the bladder floor; assay: Clinical observation: patient with prostate cancer, tumor markers PSA and CEA; format: in vivo, human; set-up: PSA: unit not given beside the values
From the text: The patient is an individual diagnosed with prostate cancer with node metastases and invasion of the bladder floor. […] In March 2003, PSA level was 1096, the carcinoembryonic antigen was 6.85.
Carcinoembryonic antigen is a substance that usually only appears during fetal development and reappears again in adults who develop certain types of cancer: colon, rectum, stomach, esophagus, liver, pancreas, bladder, and breast (female mammary gland), lung and prostate as well.
The test of carcinoembryonic antigen (CEA) plays an important role in monitoring patient outcomes with cancer and metastasis. Even though it can not be considered a final marker, it serves as a useful guide. Its constant increase means that therapy has not achieved positive results. A decrease indicates a trend towards regression of the lesion.
The patient starts with a daily dose of 250 mg of Flutamide (fluxus) until reaching a PSA of 252. After 4 months, PSA reaches 525. From this point, the patient receives a double dose of Flutamide until registering a PSA of 256. CEA level was 5.84. After three months PSA rises again to 580. The tumor becomes resistant to hormone therapy. […] At first, PSA level was 600 and CEA level was 8.86. […] CEA level has dropped to 6.51. PSA level has changed to 700, a much better value if compared to the resistance to flutamide.
The patient underwent surgery to improve the diameter of the urethra and to remove the catheter that started to produce frequent bleeding. After the surgery, the patient suffered a massive infection due to Escherichia coli bacteria. They received anti-bacterial treatment with good results. PSA reached 698. After the surgery, the administration of the composition of the invention re-started, and after 2 months, PSA dropped to 88 and CEA to 5.04. During the following 2 months, PSA level reached 10 ng/ml level. After 70 days, PSA registers 4 ng/ml levels, which are considered normal values. CEA level was 3.97. Currently, the patient has returned to work (August, 2005). They had also had dialysis due to complications during the surgery. The patient has been taking the composition in daily basis during the next two years, maintaining a good health condition. Despite the three dialysis sessions per week that they are receiving, […] general state is good; they manage to do everything by themself and exercises every morning; PSA is 15 but CEA has always been 2.5 ng/ml. During these two years (March, 2007), they have kept a strict diet and has not received any other type of anti-tumor therapy.

S. aureus = assay: Microbiological test for bactericidal properties (inhibition halo), S. aureus; format: cell-based, Staphylococcus aureus; conditions: Gentamicin 2 μg/ml
From the text: Microbiological Tests to Determine Bactericidal Properties of the Aqueous and Ethanolic Extracts of the Composition of the Invention:
The inhibitory halo of FT001 registered a diameter of approximately 12 mm.

Compound: CC(C)C(=O)Nc1ccc([N+](=O)[O-])c(C(F)(F)F)c1 [Flutamide]
- PSA ([1]; 250 mg Flutamide daily, after 4 months): 525
- PSA ([1]; daily dose of 250 mg Flutamide, start PSA 1096): 252
- CEA level ([1]; double dose of Flutamide): 5.84
- PSA ([1]; double dose of Flutamide): 256
- PSA ([1]; double dose of Flutamide, after three months, PSA rises again): 580

Compound: Gentamicin
- halo of the lower standard (S. aureus): 12.2 mm
